Test results from patent publication US7098350B2, “E2,E4,Z8-undecatrienoic acid and ester and carboxamide derivatives thereof, organoleptic uses thereof and processes for preparing same” (International Flavors & Fragrances Inc., priority 2003, dated 2006).

What was measured:
[1] = Organoleptic and somatosensory properties (Table I); details: at 10 ppm
Text: Specific members of the 2,4,8-undecatrienoic acid derivative genus of our invention have organoleptic and somatosensory properties as set forth in the following Table I: […]

[2] = Taste evaluation in kiwi-flavored 30° proof alcoholic beverage; details: 3 ppm compound plus 200 ppm kiwi flavor blend in 30° proof alcoholic base; control has flavor blend only
Procedure: (§1) The following formulation was prepared: […]
Flavored beverages were prepared using the above 30° proof alcoholic base. A kiwi flavor was applied to the beverages. This flavor consisted of cis-3 hexenol, trans-2 hexenal, ethyl butyrate, ethyl-2-methyl butyrate, isoamyl butyrate, ethyl acetate, ethyl isovalerate, and trans-2-hexenol in equal proportions. The control beverage contained 200 ppm of the above flavor blend. […] Another beverage was prepared containing 200 ppm of the same flavor and 3 ppm of N-isobutyl E2,E4,Z8-undecatrienamide prepared according to Example 1(B).

[3] = Taste evaluation in cola-flavored hard candy; details: 50 ppm compound in cola-flavored hard candy; control without compound
Procedure: as §1
The above formulation was added to a stainless steel pot. With constant mixing, the formulation temperature was raised to 295° F. The pot was then removed from the heat, and 1.0 grams of a cola flavor containing the ingredients in equal amounts: cinnamic aldehyde, ginger oil, lemon oil, lime oil and nutmeg oil was added and blended with the sucrose-corn syrup-water formulation. After the blending was complete, 1.2 grams of citric acid was added. The resulting liquid candy was then deposited into molds, and the molds containing the liquid candy were cooled to room temperature, yielding 200 grams of finished hard candy. […] A second candy sample was prepared using the above recipe modified by the addition of 50 ppm of N-isobutyl E2, E4, Z8-undecatrienamide prepared according the procedure of Example 1 (B).

In the case of `CC/C=C\CC/C=C/C=C/C(=O)NCC(C)C` [N-isobutyl E2,E4,Z8-undecatrienamide], the “Primary Flavor or Sensory Characteristic (sensation)” value [1] is reported as “Strong tingle at 10 ppm”, the “Flavor of beverage versus control” value [2] is reported as “slightly more melon rind in character than the control” and the “Perception / somatosensory effect of beverage versus control” value [2] is reported as “enhanced perception of alcohol and a tingle effect on the tongue”. For the same compound, the “Flavor and taste effect of hard candy versus control” value [3] was “moderately strong and substantive cola profile, as well as a taste effect similar to carbonation”.
